Measured values published in article PMC9687610, “Adenosine-Mimicking Derivatives of 3-Aminopyrazine-2-Carboxamide: Towards Inhibitors of Prolyl-tRNA Synthetase with Antimycobacterial Activity” (Biomolecules, 2022).
≈ marks a conversion by molar mass, not a printed value. Where two headings read alike, the source gives them in different places.

Key:
[1] = test system: Mycobacterium smegmatis DSM 43465 (ATCC 607); assay: Microplate Alamar Blue Assay (MABA), M. smegmatis; assay type: cell-based; conditions: Mycolicibacterium smegmatis, read-out: M. smegmatis MIC
[2] = test system: Candida tropicalis CCM 8264 (ATCC 750); assay: Antifungal microdilution broth (EUCAST), CT; assay type: cell-based; conditions: Candida tropicalis; read after 24 h; read-out: CT MIC
[3] = test system: Escherichia coli CCM 3954 (ATCC 25922); assay: Antibacterial microdilution broth (EUCAST), EC; assay type: cell-based; conditions: Escherichia coli; read after 24 h; read-out: EC MIC
[4] = test system: Candida krusei CCM 8271 (ATCC 6258); assay: Antifungal microdilution broth (EUCAST), CK; assay type: cell-based; conditions: Pichia kudriavzevii; read after 24 h; read-out: CK MIC
[5] = test system: Candida parapsilosis CCM 8260 (ATCC 22019); assay: Antifungal microdilution broth (EUCAST), CP; assay type: cell-based; conditions: Lodderomyces parapsilosis; read after 24 h; read-out: CP MIC
[6] = test system: Mycobacterium tuberculosis H37Ra ITM-M006710 (ATCC 9431); assay: Microplate Alamar Blue Assay (MABA), Mtb H37Ra; assay type: cell-based; conditions: for MIC: Mycobacterium tuberculosis, 120 h, pH 6.6, MABA, Middlebrook 7H9 broth pH 6.6, resazurin after 120 h, read-out: Mtb H37Ra MIC
[7] = test system: Lichtheimia corymbifera CCM 8077; assay: Antifungal microdilution broth (EUCAST), LC; assay type: cell-based; conditions: Lichtheimia corymbifera, CCM8077; read after 24 h; read-out: LC MIC
[8] = test system: Klebsiella pneumoniae CCM 4415 (ATCC 10031); assay: Antibacterial microdilution broth (EUCAST), KP; conditions: read after 24 h
[9] = test system: M. aurum DSM 43999 (ATCC 23366); assay: Microplate Alamar Blue Assay (MABA), M. aurum; assay type: cell-based; conditions: Mycolicibacterium aurum, read-out: M. aurum MIC
[10] = test system: Candida albicans CCM 8320 (ATCC 24433); assay: Antifungal microdilution broth (EUCAST), CA; assay type: cell-based; conditions: Candida albicans; read after 24 h; read-out: CA MIC
[11] = test system: Acinetobacter baumannii DSM 30007 (ATCC 19606); assay: Antibacterial microdilution broth (EUCAST), ACI; assay type: cell-based; conditions: Acinetobacter baumannii; read after 24 h; read-out: ACI MIC
[12] = test system: Staphylococcus epidermidis CCM 4418 (ATCC 12228); assay: Antibacterial microdilution broth (EUCAST), SE; assay type: cell-based; conditions: read after 24 h, read-out: SE MIC
[13] = test system: Staphylococcus aureus subsp. aureus CCM 4223 (ATCC 29213); assay: Antibacterial microdilution broth (EUCAST), SA; assay type: cell-based; conditions: Staphylococcus aureus; read after 24 h; read-out: SA MIC
[14] = test system: Pseudomonas aeruginosa CCM 3955 (ATCC 27853); assay: Antibacterial microdilution broth (EUCAST), PA; assay type: cell-based; conditions: Pseudomonas aeruginosa; read after 24 h; read-out: PA MIC
[15] = test system: HepG2 human hepatocellular carcinoma cells; assay: In vitro HepG2 cytotoxicity (CellTiter 96); conditions: for IC50: Homo sapiens, HepG2, 24 h, read-out: HepG2 IC50, 24 h incubation, * limit = highest evaluated concentration (precipitation in medium), ** over the 1000 µM limit; for solubility in the testing medium (in words): HepG2 cell culture medium
[16] = test system: Aspergillus flavus CCM 8363; assay: Antifungal microdilution broth (EUCAST), AFla; assay type: cell-based; conditions: Aspergillus flavus, CCM8363; read after 24 h; read-out: AFla MIC
[17] = test system: Enterococcus faecalis CCM 4224 (ATCC 29212); assay: Antibacterial microdilution broth (EUCAST), EF; assay type: cell-based; conditions: Enterococcus faecalis; read after 24 h; read-out: EF MIC
[18] = test system: Staphylococcus aureus subsp. aureus methicillin-resistant (MRSA) CCM 4750 (ATCC 43300); assay: Antibacterial microdilution broth (EUCAST), MRSA; assay type: cell-based; conditions: Staphylococcus aureus; read after 24 h; read-out: MRSA MIC
[19] = test system: Aspergillus fumigatus ATCC 204305; assay: Antifungal microdilution broth (EUCAST), AF; assay type: cell-based; conditions: Aspergillus fumigatus, ATCC204305; read after 24 h; read-out: AF MIC
[20] = test system: Trichophyton interdigitale CCM 8377 (ATCC 9533); assay: Antifungal microdilution broth (EUCAST), TI; assay type: cell-based; conditions: Trichophyton interdigitale, 72 h, read-out: TI MIC

SMILES	MIC [2] [µM]	MIC [3] [µM]	MIC [4] [µM]	MIC [5] [µM]	MIC [6] [µg/mL]	MIC [7] [µM]	KP MIC [8] [µM]	MIC ([9]; MABA, resazurin after 72 h) [µg/mL]	MIC [10] [µM]	MIC [11] [µM]	MIC [12] [µM]	MIC [13] [µM]	MIC [14] [µM]	IC50 [15] [µM]	MIC [16] [µM]	MIC [17] [µM]	MIC [18] [µM]	MIC [19] [µM]	melting point [°C]	MIC [20] [µM]	also measured
Cc1cccc(C(=O)Nc2nccnc2C(N)=O)c1 [Compound 3]	> 500	> 500	> 500	> 500	62.5 (≈ 244 µM)	> 500	> 500	≥ 250	> 500	> 500	> 500	> 500	> 500	> 100	> 500	> 500	> 500	> 500	226.9 to 228.8	> 500	MIC ([1]; MABA, resazurin after 48 h): ≥ 250 µg/mL
CCc1ccc(C(=O)Nc2nccnc2C(N)=O)cc1 [Compound 5]	> 250	> 250	> 250	> 250	≥ 500	> 250	> 250	≥ 500	> 250	> 250	> 250	> 250	> 250	> 100	> 250	> 250	> 250	> 250	215.5 to 218.5	> 250	MIC ([1]; MABA, resazurin after 48 h): ≥ 500 µg/mL; antimycobacterial activity (in words) ([6]; activity refers to Mtb H37Ra from the primary screening if not otherwise stated): no activity
CC(C)(C)c1ccc(C(=O)Nc2nccnc2C(N)=O)cc1 [Compound 6]	> 125	> 125	> 125	> 125	15.6 (≈ 52.4 µM)	> 125	> 125	≥ 500	> 125	> 125	> 125	> 125	> 125	114	> 125	> 125	> 125	> 125	210 to 211.5	> 125	MIC ([1]; 48 h): 15.6 µg/mL (≈ 52.4 µM)
COc1ccccc1C(=O)Nc1nccnc1C(N)=O [Compound 7]	> 500	> 500	> 500	> 500	125 (≈ 459 µM)	> 500	> 500	≥ 500	> 500	> 500	> 500	> 500	> 500	> 500	> 500	> 500	> 500	> 500	205.4 to 206.7	> 500	MIC ([1]; MABA, resazurin after 48 h): 62.5 µg/mL (≈ 230 µM)
COc1cccc(C(=O)Nc2nccnc2C(N)=O)c1 [Compound 8]	> 500	> 500	> 500	> 500	≥ 250	> 500	> 500	≥ 250	> 500	> 500	> 500	> 500	> 500	> 100	> 500	> 500	> 500	> 500	221 to 223	> 500	MIC ([1]; MABA, resazurin after 48 h): ≥ 250 µg/mL
COc1ccc(C(=O)Nc2nccnc2C(N)=O)cc1 [Compound 9]	> 125	> 125	> 125	> 125	≥ 125	> 125	> 125	–	> 125	> 125	> 125	> 125	> 125	> 250	> 125	> 125	> 125	> 125	257 to 258.5	> 125	MIC ([1]; 48 h): ≥ 125 µg/mL; MIC ([9]; 72 h): ≥ 125 µg/mL
NC(=O)c1nccnc1NC(=O)c1ccccc1F [Compound 10]	> 500	> 500	> 500	> 500	250 (≈ 961 µM)	> 500	> 500	≥ 500	> 500	> 500	> 500	> 500	> 500	556	> 500	> 500	> 500	> 500	211 to 213	> 500	MIC ([1]; MABA, resazurin after 48 h): ≥ 500 µg/mL
NC(=O)c1nccnc1NC(=O)c1cccc(F)c1 [Compound 11]	> 250	> 250	> 250	> 250	≥ 125	> 250	> 250	–	> 250	> 250	> 250	> 250	> 250	> 50	> 250	> 250	> 250	> 250	234.1 to 236	> 250	MIC ([1]; 48 h): ≥ 125 µg/mL; MIC ([9]; 72 h): ≥ 125 µg/mL; solubility in the testing medium (in words) [15]: low solubility
NC(=O)c1nccnc1NC(=O)c1ccccc1Br [Compound 16]	> 500	> 500	> 500	> 500	≥ 250	> 500	> 500	≥ 250	> 500	> 500	> 500	> 500	> 500	> 500	> 500	> 500	> 500	> 500	223.1 to 225.1	> 500	MIC ([1]; MABA, resazurin after 48 h): ≥ 250 µg/mL
NC(=O)c1nccnc1NC(=O)c1cccc(Br)c1 [Compound 17]	> 125	> 125	> 125	> 125	≥ 125	> 125	> 125	–	> 125	> 125	> 125	> 125	> 125	> 5	> 125	> 125	> 125	> 125	255 to 256	> 125	MIC ([1]; 48 h): ≥ 125 µg/mL; MIC ([9]; 72 h): ≥ 125 µg/mL; solubility in the testing medium (in words) [15]: low solubility
NC(=O)c1nccnc1NC(=O)c1cc(Cl)cc(Cl)c1 [Compound 19]	> 500	> 500	> 500	> 500	≥ 62.5	> 500	> 500	–	> 500	> 500	> 500	> 500	> 500	> 250	> 500	> 500	> 500	> 500	> 300	> 500	MIC ([1]; 48 h): ≥ 62.5 µg/mL; MIC ([9]; 72 h): ≥ 62.5 µg/mL
